{
  "source": "patent US5087440A",
  "about": "“Heterocyclic derivatives of DTPA used for magnetic resonance imaging” (Salutar, Inc., priority 1990, dated 1992)",
  "key": {"Swiss Webster mice": {"system": "Swiss Webster mice", "experiment": "Acute toxicity (LD50), iv administration to mice", "type": "in vivo", "conditions": "500 mM Gd chelate alone or with 25 mM added Ca chelate", "description": "Acute toxicity (LD50) values were determined for compositions comprising 500 mM Gd DTPA-APD alone or together with 25 mM of the calcium chelate of DTPA-APD and, for further comparison, for compositions comprising 500 mM Gd DTPA-dimeglumine alone or together with 25 mM of a calcium chelate of DTPA or a DTPA-bisamide (the bismethylamide. The acute toxicities were determined by iv administrations of the compositions to Swiss Webster mice."}, "[1]": {"conditions": "iv administration; AU-81889/87; cited from earlier work"}},
  "data": [
    {"smiles": "CNC[C@H](O)[C@@H](O)[C@H](O)[C@H](O)CO.CNC[C@H](O)[C@@H](O)[C@H](O)[C@H](O)CO.O=C([O-])CN(CCN(CC(=O)[O-])CC(=O)O)CCN(CC(=O)[O-])CC(=O)O.[Gd+3]", "note": "[Gd DTPA]", "values": [
      {"measurement": "LD50 (iv mice)", "setting": "Swiss Webster mice", "value": 5.5, "unit": "mmol/kg"},
      {"measurement": "gadolinium retention (in words)", "setting": "[1]", "value": "gadolinium retention following iv administration"}
    ]}
  ]
}
